Test results taken from patent US6376426B1, “Herbicidal 3-(heterocycl-1-yl)-uracils” (BASF Aktiengesellschaft, priority 1999, dated 2002).

Experiments:
Assay type in all cases: in vivo
Matricaria inodora [1] = assay: Pre-emergence herbicidal test, MATIN; design: key to herbicidal effect (0-9 scale) MATIN / herbicidal rating MATIN: A rating 0 indicates growth as untreated control; a rating 9 indicates death; details: PRE, 21 days after spraying
Procedure: (§1) To evaluate their herbicidal activity, compounds according to the invention are tested using a representative range of plants:
(§2) The pre-emergence tests involve spraying a liquid formulation of the compound onto the soil in which the seeds of the plant species mentioned above has recently been sown.
(§3) The soil used in the tests is a prepared horticultural loam. The formulations used in the tests are prepared from solutions of the test compounds in acetone containing 0.4% by weight of an alkylphenol/ethylene oxide condensate available under the trade mark TRITON X-155. […] In these tests untreated sown soil are used as controls.
(§4) The herbicidal effects of the test compounds are assessed visually twenty-one days after spraying the foliage and the soil and are recorded on a 0-9 scale. A rating 0 indicates growth as untreated control, a rating 9 indicates death. An increase of 1 unit on the linear scale approximates to a 10% increase in the level of effect.

Zea mays [2] = assay: Post-emergence herbicidal test, ZEAMX; design: key: A rating 0 indicates growth as untreated control; a rating 9 indicates death; details: 21 days after spraying
Procedure: as §1
(§5) […] After spraying, the plants are placed on greenhouse benches and are cared for in the usual manner, commensurate with conventional greenhouse practices.
as §4

Galium aparine [3] = assay: Post-emergence herbicidal test, GALAP; design: key to herbicidal effect (0-9 scale) GALAP / herbicidal rating GALAP: A rating 0 indicates growth as untreated control; a rating 9 indicates death; details: POST, 21 days after spraying
Procedure: as §1, §5, §4

Echinochloa crus-galli [4] = assay: Post-emergence herbicidal test, ECHCG; design: key: A rating 0 indicates growth as untreated control; a rating 9 indicates death; details: 21 days after spraying
Procedure: as §1, §5, §4

Ipomoea hederacea [5] = assay: Pre-emergence herbicidal test, IPOHE; design: key: A rating 0 indicates growth as untreated control; a rating 9 indicates death; details: 21 days after spraying
Procedure: as §1, §2, §3, §4

Setaria viridis [6] = assay: Pre-emergence herbicidal test, SETVI; design: key to herbicidal effect (0-9 scale) SETVI / herbicidal rating SETVI: A rating 0 indicates growth as untreated control; a rating 9 indicates death; details: PRE, 21 days after spraying
Procedure: as §1, §2, §3, §4

Galium aparine [7] = assay: Pre-emergence herbicidal test, GALAP; design: key to herbicidal effect (0-9 scale) GALAP / herbicidal rating GALAP: A rating 0 indicates growth as untreated control; a rating 9 indicates death; details: PRE, 21 days after spraying
Procedure: as §1, §2, §3, §4

Zea mays [8] = assay: Pre-emergence herbicidal test, ZEAMX; design: key to herbicidal effect (0-9 scale) ZEAMX / herbicidal rating ZEAMX: A rating 0 indicates growth as untreated control; a rating 9 indicates death; details: PRE, 21 days after spraying
Procedure: as §1, §2, §3, §4

Stellaria media [9] = assay: Post-emergence herbicidal test, STEME; design: key to herbicidal effect (0-9 scale) STEME / herbicidal rating STEME: A rating 0 indicates growth as untreated control; a rating 9 indicates death; details: POST, 21 days after spraying
Procedure: as §1, §5, §4

Abutilon theophrasti [10] = assay: Pre-emergence herbicidal test, ABUTH; design: key to herbicidal effect (0-9 scale) ABUTH / herbicidal rating ABUTH: A rating 0 indicates growth as untreated control; a rating 9 indicates death; details: PRE, 21 days after spraying
Procedure: as §1, §2, §3, §4

Glycine max [11] = assay: Pre-emergence herbicidal test, GLXMA; details: PRE, 21 days after spraying
Procedure: as §1, §2, §3, §4

Alopecurus myosuroides [12] = assay: Pre-emergence herbicidal test, ALOMY; design: key to herbicidal effect (0-9 scale) ALOMY / herbicidal rating ALOMY: A rating 0 indicates growth as untreated control; a rating 9 indicates death; details: PRE, 21 days after spraying
Procedure: as §1, §2, §3, §4

Triticum aestivum [13] = assay: Pre-emergence herbicidal test, TRZAW; design: key: A rating 0 indicates growth as untreated control; a rating 9 indicates death; details: 21 days after spraying
Procedure: as §1, §2, §3, §4

Abutilon theophrasti [14] = assay: Post-emergence herbicidal test, ABUTH; design: key to herbicidal effect (0-9 scale) ABUTH / herbicidal rating ABUTH: A rating 0 indicates growth as untreated control; a rating 9 indicates death; details: POST, 21 days after spraying
Procedure: as §1, §5, §4

Alopecurus myosuroides [15] = assay: Post-emergence herbicidal test, ALOMY; design: key: A rating 0 indicates growth as untreated control; a rating 9 indicates death; details: 21 days after spraying
Procedure: as §1, §5, §4

Stellaria media [16] = assay: Pre-emergence herbicidal test, STEME; design: key to herbicidal effect (0-9 scale) STEME / herbicidal rating STEME: A rating 0 indicates growth as untreated control; a rating 9 indicates death; details: PRE, 21 days after spraying
Procedure: as §1, §2, §3, §4

Triticum aestivum [17] = assay: Post-emergence herbicidal test, TRZAW; details: POST, 21 days after spraying
Procedure: as §1, §5, §4

Hordeum vulgare [18] = assay: Pre-emergence herbicidal test, HORVW; design: key: A rating 0 indicates growth as untreated control; a rating 9 indicates death; details: 21 days after spraying
Procedure: as §1, §2, §3, §4

Matricaria inodora [19] = assay: Post-emergence herbicidal test, MATIN; design: key to herbicidal effect (0-9 scale) MATIN / herbicidal rating MATIN: A rating 0 indicates growth as untreated control; a rating 9 indicates death; details: POST, 21 days after spraying
Procedure: as §1, §5, §4

Ipomoea hederacea [20] = assay: Post-emergence herbicidal test, IPOHE; design: key to herbicidal effect (0-9 scale) IPOHE / herbicidal rating IPOHE: A rating 0 indicates growth as untreated control; a rating 9 indicates death; details: POST, 21 days after spraying
Procedure: as §1, §5, §4

Glycine max [21] = assay: Post-emergence herbicidal test, GLXMA; design: key: A rating 0 indicates growth as untreated control; a rating 9 indicates death; details: 21 days after spraying
Procedure: as §1, §5, §4

Setaria viridis [22] = assay: Post-emergence herbicidal test, SETVI; design: key to herbicidal effect (0-9 scale) SETVI / herbicidal rating SETVI: A rating 0 indicates growth as untreated control; a rating 9 indicates death; details: POST, 21 days after spraying
Procedure: as §1, §5, §4

Hordeum vulgare [23] = assay: Post-emergence herbicidal test, HORVW; details: 21 days after spraying
Procedure: as §1
These acetone solutions are diluted with water and the resulting formulations applied at dosage levels equivalent to about 1000, 800, 400, 250 or 100 g/ha per hectare of test compound per pot. After spraying, the plants are placed on greenhouse benches and are cared for in the usual manner, commensurate with conventional greenhouse practices.
as §4

Echinochloa crus-galli [24] = assay: Pre-emergence herbicidal test, ECHCG; design: key: A rating 0 indicates growth as untreated control; a rating 9 indicates death; details: 21 days after spraying
Procedure: as §1, §2, §3, §4

In the case of `COc1ccc2ccn(-n3c(=O)cc(C(F)(F)F)n(C)c3=O)c2c1` [Example 1, 6-Methoxy-1-(3-methyl-4-trifluoromethylpyrimidin-2,6-dion-1-yl)-indole], the “herbicidal effect (0-9 scale) MATIN” value (Matricaria inodora [1]; 250 g/ha) is reported as 9, the “herbicidal effect (0-9 scale) MATIN” value (Matricaria inodora [1]; 1000 g/ha) is reported as 9 and the “herbicidal effect (0-9 scale) ZEAMX” value (Zea mays [2]; 250 g/ha) is reported as 9. The “herbicidal effect (0-9 scale) ZEAMX” value (Zea mays [2]; 1000 g/ha) was 9, the “herbicidal effect (0-9 scale) GALAP” value (Galium aparine [3]; 250 g/ha) was 9 and the “herbicidal effect (0-9 scale) GALAP” value (Galium aparine [3]; 1000 g/ha) was 9. For the same compound, the “herbicidal effect (0-9 scale) ECHCG” value (Echinochloa crus-galli [4]; 250 g/ha) was 9, the “herbicidal effect (0-9 scale) ECHCG” value (Echinochloa crus-galli [4]; 1000 g/ha) was 9 and the “herbicidal effect (0-9 scale) IPOHE” value (Ipomoea hederacea [5]; 250 g/ha) was 8. For the same compound, the “herbicidal effect (0-9 scale) IPOHE” value (Ipomoea hederacea [5]; 1000 g/ha) was 9, the “herbicidal effect (0-9 scale) SETVI” value (Setaria viridis [6]; 250 g/ha) was 9 and the “herbicidal effect (0-9 scale) SETVI” value (Setaria viridis [6]; 1000 g/ha) was 9. The “herbicidal effect (0-9 scale) GALAP” value (Galium aparine [7]; 250 g/ha) was 9, the “herbicidal effect (0-9 scale) GALAP” value (Galium aparine [7]; 1000 g/ha) was 9 and the “herbicidal effect (0-9 scale) ZEAMX” value (Zea mays [8]; 250 g/ha) was 8. The “herbicidal effect (0-9 scale) ZEAMX” value (Zea mays [8]; 1000 g/ha) was 9, the “herbicidal effect (0-9 scale) STEME” value (Stellaria media [9]; 250 g/ha) was 9 and the “herbicidal effect (0-9 scale) STEME” value (Stellaria media [9]; 1000 g/ha) was 9. The “herbicidal effect (0-9 scale) ABUTH” value (Abutilon theophrasti [10]; 250 g/ha) was 9, the “herbicidal effect (0-9 scale) ABUTH” value (Abutilon theophrasti [10]; 1000 g/ha) was 9 and the “herbicidal effect (0-9 scale) GLXMA” value (Glycine max [11]; 250 g/ha) was 6. The “herbicidal effect (0-9 scale) GLXMA” value (Glycine max [11]; 1000 g/ha) was 6, the “herbicidal effect (0-9 scale) ALOMY” value (Alopecurus myosuroides [12]; 250 g/ha) was 9 and the “herbicidal effect (0-9 scale) ALOMY” value (Alopecurus myosuroides [12]; 1000 g/ha) was 9. For the same compound, the “herbicidal effect (0-9 scale) TRZAW” value (Triticum aestivum [13]; 250 g/ha) was 8, the “herbicidal effect (0-9 scale) TRZAW” value (Triticum aestivum [13]; 1000 g/ha) was 9 and the “herbicidal effect (0-9 scale) ABUTH” value (Abutilon theophrasti [14]; 250 g/ha) was 9. The “herbicidal effect (0-9 scale) ABUTH” value (Abutilon theophrasti [14]; 1000 g/ha) was 9, the “herbicidal effect (0-9 scale) ALOMY” value (Alopecurus myosuroides [15]; 250 g/ha) was 9 and the “herbicidal effect (0-9 scale) ALOMY” value (Alopecurus myosuroides [15]; 1000 g/ha) was 9. For the same compound, the “herbicidal effect (0-9 scale) STEME” value (Stellaria media [16]; 250 g/ha) was 9, the “herbicidal effect (0-9 scale) STEME” value (Stellaria media [16]; 1000 g/ha) was 9 and the “herbicidal effect (0-9 scale) TRZAW” value (Triticum aestivum [17]; 250 g/ha) was 6. For the same compound, the “herbicidal effect (0-9 scale) TRZAW” value (Triticum aestivum [17]; 1000 g/ha) was 8, the “herbicidal effect (0-9 scale) HORVW” value (Hordeum vulgare [18]; 250 g/ha) was 7 and the “herbicidal effect (0-9 scale) HORVW” value (Hordeum vulgare [18]; 1000 g/ha) was 9. The “herbicidal effect (0-9 scale) MATIN” value (Matricaria inodora [19]; 250 g/ha) was 8, the “herbicidal effect (0-9 scale) MATIN” value (Matricaria inodora [19]; 1000 g/ha) was 9 and the “herbicidal effect (0-9 scale) IPOHE” value (Ipomoea hederacea [20]; 250 g/ha) was 9. For the same compound, the “herbicidal effect (0-9 scale) IPOHE” value (Ipomoea hederacea [20]; 1000 g/ha) was 9, the “herbicidal effect (0-9 scale) GLXMA” value (Glycine max [21]; 250 g/ha) was 9 and the “herbicidal effect (0-9 scale) GLXMA” value (Glycine max [21]; 1000 g/ha) was 9. For the same compound, the “herbicidal effect (0-9 scale) SETVI” value (Setaria viridis [22]; 250 g/ha) was 9, the “herbicidal effect (0-9 scale) SETVI” value (Setaria viridis [22]; 1000 g/ha) was 9 and the “herbicidal effect (0-9 scale) HORVW” value (Hordeum vulgare [23]; 250 g/ha) was 8. For the same compound, the “herbicidal effect (0-9 scale) HORVW” value (Hordeum vulgare [23]; 1000 g/ha) was 8, the “herbicidal effect (0-9 scale) ECHCG” value (Echinochloa crus-galli [24]; 250 g/ha) was 9 and the “herbicidal effect (0-9 scale) ECHCG” value (Echinochloa crus-galli [24]; 1000 g/ha) was 9.
